The target of test [1] is T1, human GHS receptor (Homo sapiens, UniProt Q92847). In words: h bind IC50 (binding assay, Table 1). As to conditions: human receptor; Table 1.
The target of test [2] is T1, human GHS receptor. In words: Ghrelin IP1 agonist assay (IP1 HTRF). Further details: expressed in transfected cells; host or cells: HEK293s. As to conditions: for Emax: 2 h, agonist effect as % maximal effect of GHRP-6 (5 μM), read-out: h IP1 ag %; for EC50: HEK293s cells stably expressing human GHS receptor, 2 hours at 37° C., read-out: h IP1 ag EC50. In kind it is cell-based. Summed up:
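Cells: HEK293s stably expressing human GHS receptor, in stimulation buffer containing 0.02% fatty acid free BSA.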
(TR-FRET usually uses a lanthanide donor and a delayed reading to cut background.)

T1 sequence (Q92847 whole entry): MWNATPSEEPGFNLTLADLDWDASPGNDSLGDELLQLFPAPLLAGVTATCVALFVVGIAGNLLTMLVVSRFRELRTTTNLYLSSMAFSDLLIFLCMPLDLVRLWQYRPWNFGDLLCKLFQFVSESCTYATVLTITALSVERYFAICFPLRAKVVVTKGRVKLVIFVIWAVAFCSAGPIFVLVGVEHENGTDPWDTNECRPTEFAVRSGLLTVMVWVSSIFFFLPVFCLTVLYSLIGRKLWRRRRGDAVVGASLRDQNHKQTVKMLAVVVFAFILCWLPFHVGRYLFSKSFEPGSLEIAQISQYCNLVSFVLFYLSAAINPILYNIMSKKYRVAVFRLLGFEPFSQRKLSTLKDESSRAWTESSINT

As for `CC(C)NS(=O)(=O)c1ccc2nc(NC(=O)NC(=O)c3ccccc3Cl)sc2c1` [Example 224, 2-chloro-N-[[6-(isopropylsulfamoyl)-1,3-benzothiazol-2-yl]carbamoyl]benzamide], the IC50 on human GHS receptor [1] was 87.8 nM. Also, at human GHS receptor [2], the Emax turned out to be 24.3% and the EC50 turned out to be 139 nM.

The compound `CC(C)NCC(C)(C)S(=O)(=O)c1ccc2nc(NC(=O)NC(=O)c3ccccc3Cl)sc2c1` [Example 225, 2-chloro-N-(6-(1-(isopropylamino)-2-methylpropan-2-ylsulfonyl)benzo[d]thiazol-2-ylcarbamoyl)benzamide] came in with an IC50 at human GHS receptor [1] of 60.3 nM. On human GHS receptor [2], the Emax was determined as 27.8% and the half-maximal effective concentration (EC50) amounted to 224 nM.

`CCc1ccc(Cl)c(C(=O)NC(=O)Nc2nc3ccc(S(=O)(=O)CCCN4CCN(C)CC4)cc3s2)c1` [Example 226, 2-chloro-5-ethyl-N-(6-(3-(4-methylpiperazin-1-yl)propylsulfonyl)-benzo[d]thiazol-2-ylcarbamoyl)benzamide] yielded an IC50 on human GHS receptor [1] of 0.05 nM. Also, at human GHS receptor [2], the Emax is 22.3% and the EC50 was found to be 2.19 nM.

Take `CC(=O)N1CCC(Oc2ccc(Cl)c(C(=O)NC(=O)Nc3nc4ccc(S(C)(=O)=O)cc4s3)c2)C1` (stereo not drawn) [Example 227, 5-(1-acetylpyrrolidin-3-yloxy)-2-chloro-N-(6-(methylsulfonyl)benzo[d]thiazol-2-ylcarbamoyl)benzamide]: the IC50 at human GHS receptor [1] turned out to be 3790 nM. For the same compound, at human GHS receptor [2], the Emax was determined as 10.6% and the EC50 was ≥ 20000 nM.

At human GHS receptor [1], `CC(C)N1CCC[C@H](COc2ccc(Cl)c(C(=O)NC(=O)Nc3nc4ccc(S(C)(=O)=O)cc4s3)c2)C1` [Example 228, (S)-2-chloro-5-((1-isopropylpiperidin-3-yl)methoxy)-N-(6-(methylsulfonyl)benzo[d]thiazol-2-ylcarbamoyl)benzamide] yielded an IC50 of 1240 nM. Moreover, on human GHS receptor [2], the Emax came to 9.89% and the EC50 worked out at 1370 nM.

For `NS(=O)(=O)c1ccc2nc(NC(=O)NC(=O)c3ccccc3Cl)sc2c1` [Example 229, 2-chloro-N-[(6-sulfamoyl-1,3-benzothiazol-2-yl)carbamoyl] benzamide], the concentration for half-maximal inhibition (IC50) on human GHS receptor [1] came out at 1970 nM. At human GHS receptor [2], the Emax was determined as 18.2% and the EC50 stood at 117 nM.

Consider `CNS(=O)(=O)c1ccc2nc(NC(=O)NC(=O)c3ccccc3Cl)sc2c1` [Example 230, 2-chloro-N-[[6-(methylsulfamoyl)-1,3-benzothiazol-2-yl]carbamoyl] benzamide], for which the IC50 at human GHS receptor [1] came to 19.3 nM. On human GHS receptor [2], the Emax worked out at 12.6% and the 50% effective concentration (EC50) worked out at 46.5 nM.

At human GHS receptor [1], `O=C(NC(=O)c1ccccc1Cl)Nc1nc2ccc(S(=O)(=O)NCCO)cc2s1` [Example 231, 2-chloro-N-[[6-(2-hydroxyethyl-sulfamoyl)-1,3-benzothiazol-2-yl]carbamoyl] benzamide] returned an IC50 of 67.3 nM. Besides, on human GHS receptor [2], the Emax worked out at 15.7% and the EC50 turned out to be 72.1 nM.

Compound `CN(C)S(=O)(=O)c1ccc2nc(NC(=O)NC(=O)c3ccccc3Cl)sc2c1` [Example 232, 2-chloro-N-[[6-(dimethylsulfamoyl)-1,3-benzothiazol-2-yl]carbamoyl] benzamide] came in with an IC50 at human GHS receptor [1] of 31.4 nM. For the same compound, on human GHS receptor [2], the Emax was determined as 12.6% and the EC50 stood at 56.1 nM.

Consider `CN(C)[C@@H]1CCN(c2ccc(Cl)c(C(=O)NC(=O)Nc3nc4ccc(S(C)(=O)=O)cc4s3)c2)C1` [Example 233, (R)-2-chloro-5-(3-(dimethylamino)pyrrolidin-1-yl)-N-(6-(methylsulfonyl)benzo[d]thiazol-2-ylcarbamoyl) benzamide], for which, at human GHS receptor [1], the IC50 was 39.1 nM. Moreover, on human GHS receptor [2], the Emax turned out to be 10.4% and the EC50 is ≥ 20000 nM.

At human GHS receptor [1], `CC(C)(C)OC(=O)N1CCN(c2ccc(Cl)c(C(=O)NC(=O)Nc3nc4ccc(S(C)(=O)=O)cc4s3)c2)CC1` [Example 234, tert-butyl 4-(4-chloro-3-(6-(methylsulfonyl)benzo[d]thiazol-2-ylcarbamoyl-carbamoyl)phenyl) piperazine-1-carboxylate] gave an IC50 of 3.82 nM. Moreover, at human GHS receptor [2], the Emax worked out at 6.73% and the EC50 is ≥ 20000 nM.

`CN(C)[C@H]1CCN(c2ccc(Cl)c(C(=O)NC(=O)Nc3nc4ccc(S(C)(=O)=O)cc4s3)c2)C1` [Example 235, (S)-2-chloro-5-(3-(dimethylamino)pyrrolidin-1-yl)-N-(6-(methylsulfonyl)benzo[d]thiazol-2-ylcarbamoyl) benzamide] showed an IC50 at human GHS receptor [1] of 22.7 nM. Moreover, at human GHS receptor [2], the Emax came to 19.6% and the EC50 is ≥ 20000 nM.

On human GHS receptor [1], `CN(C)C1CCN(c2ccc(Cl)c(C(=O)NC(=O)Nc3nc4ccc(S(C)(=O)=O)cc4s3)c2)CC1` [Example 236, 2-chloro-5-(4-(dimethylamino)piperidin-1-yl)-N-(6-(methylsulfonyl)benzo[d]thiazo1-2-ylcarbamoyl) benzamide] displayed a 50% inhibitory concentration (IC50) of 4090 nM. Moreover, at human GHS receptor [2], the Emax was found to be 3.72% and the EC50 is ≥ 20000 nM.

Regarding `Cc1cc(C)n(-c2ccc(Cl)c(C(=O)NC(=O)Nc3nc4ccc(S(=O)(=O)CCCN5CCN(C)CC5)cc4s3)c2)n1` [Example 237, 2-chloro-5-(3,5-dimethyl-1H-pyrazol-1-yl)-N-(6-(3-(4-methylpiperazin-1-yl)propylsulfonyl)benzo[d]thiazol-2-ylcarbamoyl) benzamide], the IC50 on human GHS receptor [1] is 0.7 nM. On human GHS receptor [2], the Emax is 0% and the EC50 was ≥ 20000 nM.

Consider `CN1CCCN(CCCS(=O)(=O)c2ccc3nc(NC(=O)NC(=O)c4cc(I)ccc4Cl)sc3c2)CC1` [Example 238, 2-chloro-5-iodo-N-(6-(3-(4-methyl-1,4-diazepan-1-yl)propylsulfonyl)benzo[d]thiazol-2-ylcarbamoyl) benzamide], for which the IC50 at human GHS receptor [1] worked out at 0.47 nM. On human GHS receptor [2], the Emax worked out at 9.98% and the EC50 is 43.4 nM.

With `CCN(CC)C1CCN(c2ccc(Cl)c(C(=O)NC(=O)Nc3nc4ccc(S(C)(=O)=O)cc4s3)c2)C1` (stereo not drawn) [Example 239, 2-chloro-5-(3-(diethylamino)pyrrolidin-1-yl)-N-(6-(methylsulfonyl)benzo[d]thiazol-2-ylcarbamoyl) benzamide], on human GHS receptor [1], the IC50 turned out to be 150 nM. On human GHS receptor [2], the Emax amounted to 0% and the half-maximal effective concentration (EC50) was ≥ 20000 nM.

On to `CN1CCN(CCCS(=O)(=O)c2ccc3nc(NC(=O)NC(=O)c4cccc(-n5cccn5)c4Cl)sc3c2)CC1` [Example 240, 2-chloro-N-(6-(3-(4-methylpiperazin-1-yl)propylsulfonyl)benzo[d]thiazol-2-ylcarbamoyl)-3-(1H-pyrazol-1-yl)benzamide], for which, at human GHS receptor [1], the 50% inhibitory concentration (IC50) was 8.83 nM. Also, at human GHS receptor [2], the Emax came out at 80.9% and the EC50 was determined as 28.1 nM.

As to `CN1CCN(CCCS(=O)(=O)c2ccc3nc(NC(=O)NC(=O)c4cc(-n5cccn5)c(Cl)cc4Cl)sc3c2)CC1` [Example 241, 2,4-dichloro-N-(6-(3-(4-methylpiperazin-1-yl)propylsulfonyl)benzo[d]thiazol-2-ylcarbamoyl)-5-(1H-pyrazol-1-yl)benzamide], the IC50 at human GHS receptor [1] amounted to 0.31 nM. At human GHS receptor [2], the Emax is 0% and the EC50 was ≥ 20000 nM.

`COc1cc(Cl)c(C(=O)NC(=O)Nc2nc3ccc(S(=O)(=O)CCCN4CCN(C)CC4)cc3s2)cc1-n1cccn1` [Example 242, 2-chloro-4-methoxy-N-(6-(3-(4-methylpiperazin-1-yl)propylsulfonyl)benzo[d]thiazol-2-ylcarbamoyl) 5-(1H-pyrazol-1-yl)benzamide] gave an IC50 on human GHS receptor [1] of 0.62 nM. Besides, on human GHS receptor [2], the Emax was determined as 9.32% and the EC50 was ≥ 20000 nM.

`CC(C)(C)OC(=O)N1CCC(Oc2ccc(Cl)c(C(=O)NC(=O)Nc3nc4ccc(S(C)(=O)=O)cc4s3)c2)CC1` [Example 243, tert-butyl 4-(4-chloro-3-(6-(methylsulfonyl)benzo[d]thiazol-2-ylcarbamoyl-carbamoyl)phenoxy) piperidine-1-carboxylate] displayed an IC50 at human GHS receptor [1] of 14.3 nM. Further, on human GHS receptor [2], the Emax stood at 7.67% and the EC50 stood at 9.34 nM.

On human GHS receptor [1], `CN1CCC(Oc2ccc(Cl)c(C(=O)NC(=O)Nc3nc4ccc(S(C)(=O)=O)cc4s3)c2)CC1` [Example 244, 2-chloro-5-(1-methylpiperidin-4-yloxy)-N-(6-(methylsulfonyl)benzo[d]thiazol-2-ylcarbamoyl) benzamide] showed an IC50 of 2060 nM. Besides, on human GHS receptor [2], the Emax turned out to be 22.6% and the EC50 came out at 19700 nM.

With `CC(C)(CN1CCCC1)S(=O)(=O)c1ccc2nc(NC(=O)NC(=O)c3cc(N4CCOCC4)ccc3Cl)sc2c1` [Example 245, 2-chloro-N-(6-(2-methyl-1-(pyrrolidin-1-yl)propan-2-ylsulfonyl)benzo[d]thiazol-2-ylcarbamoyl)-5-morpholino-benzamide], the IC50 on human GHS receptor [1] came out at 6.52 nM. Further, at human GHS receptor [2], the Emax came out at 0% and the EC50 is ≥ 20000 nM.

`CC(C)NCC(C)(C)S(=O)(=O)c1ccc2nc(NC(=O)NC(=O)c3cc(N4CCOCC4)ccc3Cl)sc2c1` [Example 246, 2-chloro-N-(6-(1-(isopropylamino)-2-methylpropan-2-ylsulfonyl)benzo[d]thiazol-2-ylcarbamoyl)-5-morpholino-benzamide] returned a half-inhibitory concentration (IC50) at human GHS receptor [1] of 2.08 nM. On human GHS receptor [2], the Emax stood at 0% and the EC50 is ≥ 20000 nM.

`CN(C)c1cccnc1-c1ccc(Cl)c(C(=O)NC(=O)Nc2nc3ccc(S(C)(=O)=O)cc3s2)c1` [Example 247] returned an IC50 on human GHS receptor [1] of 452 nM. Also, at human GHS receptor [2], the Emax turned out to be 0% and the EC50 was ≥ 20000 nM.

Turning to `CC(C)(C)OC(=O)N1CCC(Oc2ccc(Cl)c(C(=O)NC(=O)Nc3nc4ccc(S(C)(=O)=O)cc4s3)c2)C1` (stereo not drawn) [Example 248, tert-butyl 3-(4-chloro-3-(6-(methylsulfonyl)benzo[d]thiazol-2-ylcarbamoyl-carbamoyl)phenoxy) pyrrolidine-1-carboxylate], the IC50 on human GHS receptor [1] came to 59 nM. For the same compound, on human GHS receptor [2], the Emax was 3.07% and the EC50 was 347 nM.

Usually IC50 stands for the concentration needed to halve the response being measured. A higher IC50 goes with lower potency. For orientation: EC50 means the midpoint of the concentration-response curve.
